Experimental data: article PMC7069976, “Improved secretion of glycoproteins using an N-glycan-restricted passport sequence tag recognized by cargo receptor” (Nature Communications, 2020)

What was measured:
[1] = biological target: T1, MCFD2 (Homo sapiens, UniProt Q8NI22); settings: Arg44–His56; cited from earlier work
T1 construct: The preparation of ERGIC-53^CRD, MCFD2, and their complexes was performed as previously described; made in house
T1 sequence (Q8NI22 27-146): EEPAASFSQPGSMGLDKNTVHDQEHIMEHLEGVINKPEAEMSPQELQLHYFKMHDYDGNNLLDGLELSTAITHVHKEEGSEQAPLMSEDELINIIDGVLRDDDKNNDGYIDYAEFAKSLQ

[2] = test system: HCT116 cells; assay: α1-antitrypsin (AAT) secretion level (ELISA) from HCT116 cells; format: cell-based
Excerpt: (§1) For expression of the FVIII and FV full-length and deletion mutant proteins in mammalian cells, the codon-optimized FVIII and FV genes were inserted into the p3XFLAG-CMV-14 Expression Vector and p3XFLAG-CMV-9 Expression Vector, respectively (Sigma-Aldrich, St. Louis, MO). For the expression of the wild-type and mutated AAT, EPO, and sFγRIIIa in mammalian cells, the corresponding genes (purchased from FASMAC Co., Ltd., Atsuki, Japan) were inserted into the p3XFLAG-CMV-9 Expression Vector (Sigma-Aldrich).
HCT116 and its mutated cells as well as HEK293T were maintained in Dulbecco’s modified Eagle’s medium (DMEM) supplemented with 10% fetal bovine serum in 5% CO2 at 37 °C. For complementary DNA (cDNA) transfection, cells were grown overnight and transfected using Polyethylenimine “Max” (Polysciences Inc.) as described previously. Expi293F cells (Thermo Fisher Scientific, Waltham, MA) were maintained in Expi293 Expression Medium (Thermo Fisher Scientific) in 5% CO2 at 37 °C on an orbital shaker platform rotating at 125 r.p.m. For cDNA transfection, cells were transfected with the ExpiFectamine 293 Transfection Kit (Thermo Fisher Scientific Inc.). Protein expression was performed in serum-free medium.
(§2) The secreted levels of FVIII and FV antigens in the culture medium were determined with an sandwich enzyme-linked immunosorbent assay (ELISA) method using the VisuLize FVIII Antigen Kit (Affinity Biologicals Inc., Ancaster, ON) and the Asssay Max™ Human Factor V ELISA Kit (ASSAYPRO, MO), respectively. The secreted levels of AAT and EPO antigens in the culture medium were determined with an ELASA method using the anti-AAT antibody (Agilent, Santa Clara, CA) and anti-Flag M2 antibody (Sigma-Aldrich), respectively.

[3] = test system: COS-7 cells; assay: FV secretion level (ELISA) from COS-7 cells; format: cell-based
Excerpt: as §1, §2

[4] = biological target: T1, MCFD2; assay: NMR chemical shift perturbation of [15N]MCFD2 upon peptide addition; format: binding
[5] = biological target: T2, MCFD2/ERGIC-53^CRD complex (Homo sapiens, UniProt P49257+Q8NI22); assay: NMR titration (peak attenuation) of [15N]FVIII-derived peptide with MCFD2/ERGIC-53CRD; format: binding
T2 construct: made in house
T2 sequence (Q8NI22 27-146): T1 sequence (Q8NI22 27-146)
T2 sequence (P49257 44-267 partner limits assumed): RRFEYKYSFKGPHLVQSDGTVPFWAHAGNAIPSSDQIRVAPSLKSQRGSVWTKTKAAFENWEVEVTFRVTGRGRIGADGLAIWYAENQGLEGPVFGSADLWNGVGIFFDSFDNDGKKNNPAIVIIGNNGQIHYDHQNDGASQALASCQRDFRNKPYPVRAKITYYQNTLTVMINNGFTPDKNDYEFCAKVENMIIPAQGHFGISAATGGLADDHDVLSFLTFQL
Experimental: (§3) The preparation of ERGIC-53^CRD, MCFD2, and their complexes was performed as previously described[16],[18]. FVIII fragment (Asn776–Asp838) was prepared using the protocol described previously. The DNA fragment encoding residues Asn776–Asp838 of FVIII was cloned into the ubiquitin (Ub)-fused pET28a plasmid. The peptide fragment was expressed as a Ub-fused protein in Luria–Bertani broth or M9 minimal medium supplemented with [^15N]NH4Cl and/or [^13C]glucose for NMR experiments. The Ub-fused FVIII peptide was purified with immobilized Ni^2+-affinity chromatography and then digested with Ub carboxyl-terminal hydrolase (YUH1). The resultant peptide was purified by reversed-phase chromatography.
(§4) NMR measurements were performed using AVANCE 800 and AVANCE 500 spectrometers each equipped with a 5-mm triple-resonance cryogenic probe (Bruker BioSpin, Fallanden, Switzerland). The NMR data were processed and analyzed using TopSpin (Bruker BioSpin) and SPARKY software.
(§5) The chemical shifts of the FVIII fragment (Asn776–Asp838) were assigned by a standard protocol[18],[25]. To obtain the dissociation constant based on NMR peak attenuation, 0.1 mM [^15N]FVIII fragment was titrated with 0.02–0.3 mM of MCFD2/ERGIC-53^CRD or MCFD2 only in 20 mM 2-(N-morpholino) ethanesulfonic acid (MES; pH 6.0) containing 10 mM CaCl2, 150 mM NaCl, and 10% (v/v) D2O. […]

[6] = biological target: T1, MCFD2; assay: NMR titration (peak attenuation) of [15N]FVIII-derived peptide with MCFD2 only; format: binding; settings: absence of ERGIC-53CRD, 0.1 mM [15N]FVIII fragment, 0.02–0.3 mM MCFD2, 20 mM MES pH 6.0, 10 mM CaCl2, 150 mM NaCl, 10% D2O, read-out: dissociation constant
Experimental: as §3, §4, §5

In the case of RRFEYKYSFKGPH, the “chemical shift changes of MCFD2 induced by ERGIC-53CRD-derived tridecapeptide” value [1] is given as “induces widespread chemical shift changes of MCFD2”.

With “AAT: human α1-antitrypsin, three N-glycosylation sites” the “AAT secretion level, average” value ([2]; HCT116, Average, n = 3 independent transfections, AAT = 1) was 1, the AAT secretion level ([2]; HCT116, replicate 1) was 1.145 and the AAT secretion level ([2]; HCT116, replicate 2) was 1.033. It also gave an AAT secretion level ([2]; HCT116, replicate 3) of 0.8224.

With FV: recombinant wild-type factor V the “FV secretion level (Supplementary Fig. 7B), average” value ([3]; Average, n = 3, FV = 1) was 1, the “FV secretion level (Supplementary Fig. 7B)” value ([3]; replicate 1) was 1.05 and the “FV secretion level (Supplementary Fig. 7B)” value ([3]; replicate 2) was 0.9799. The “FV secretion level (Supplementary Fig. 7B)” value ([3]; replicate 3) was 0.9702.

For DPPSDLLLLKQSNSSKILVGRWHLASEK, the “interaction of FV-derived peptide with MCFD2” value ([4]; two molar equivalents, with vs without ERGIC-53CRD-derived peptide, pH 6.0, 2% DMSO-d6, 303 K) was “interacts with the EF-hand helices of MCFD2 in an ERGIC-53^CRD-dependent manner”.

In the case of “ATZ-mutant: ATZ-mutant of alpha 1-antitrypsin, with or without C-terminal SDLLMLLRQS motif”, the “ATZ-mutant secretion with vs without C-terminal motif” value ([2]; ATZ-mutant of alpha1-antitrypsin, HCT116, ELISA, n = 3) is reported as “did not observe significant difference”.

For “DPPSDLLLLKQSNSSKILVGRWHLASEK [FVIII-derived peptide, FVIII fragment residues Asn776–Asp838, expressed as Ub-fused protein and cleaved with YUH1]”, the “attenuation of NMR peak intensities upon addition of MCFD2/ERGIC-53CRD” value ([5]; 15N-labeled peptide 0.1 mM, one molar equivalent, pH 6.0, 283 K) was “significant attenuation in peak intensities for the region spanning residues 806–819”, the Kd ([5]; NMR peak attenuation, 0.1 mM [15N]FVIII fragment titrated with 0.02–0.3 mM MCFD2/ERGIC-53CRD, 20 mM MES pH 6.0, 10 mM CaCl2, 150 mM NaCl, 10% D2O, read-out: dissociation constant) was 11 µM and the Kd [6] was 120 µM. The “chemical shift changes of MCFD2 induced by FVIII-derived peptide” value ([4]; two molar equivalents of peptide, with vs without five equivalents ERGIC-53CRD-derived tridecapeptide, pH 6.0, 303 K) was “markedly enhanced spectral changes in the presence of the ERGIC-53-derived tridecapeptide”.
